The text below walks through data of US9370520B2, “Macrocyclic LRRK2 kinase inhibitors” (IPSEN PHARMA S.A.S., priority 2011, dated 2016).

T3 sequence (Q5S007 970-2527): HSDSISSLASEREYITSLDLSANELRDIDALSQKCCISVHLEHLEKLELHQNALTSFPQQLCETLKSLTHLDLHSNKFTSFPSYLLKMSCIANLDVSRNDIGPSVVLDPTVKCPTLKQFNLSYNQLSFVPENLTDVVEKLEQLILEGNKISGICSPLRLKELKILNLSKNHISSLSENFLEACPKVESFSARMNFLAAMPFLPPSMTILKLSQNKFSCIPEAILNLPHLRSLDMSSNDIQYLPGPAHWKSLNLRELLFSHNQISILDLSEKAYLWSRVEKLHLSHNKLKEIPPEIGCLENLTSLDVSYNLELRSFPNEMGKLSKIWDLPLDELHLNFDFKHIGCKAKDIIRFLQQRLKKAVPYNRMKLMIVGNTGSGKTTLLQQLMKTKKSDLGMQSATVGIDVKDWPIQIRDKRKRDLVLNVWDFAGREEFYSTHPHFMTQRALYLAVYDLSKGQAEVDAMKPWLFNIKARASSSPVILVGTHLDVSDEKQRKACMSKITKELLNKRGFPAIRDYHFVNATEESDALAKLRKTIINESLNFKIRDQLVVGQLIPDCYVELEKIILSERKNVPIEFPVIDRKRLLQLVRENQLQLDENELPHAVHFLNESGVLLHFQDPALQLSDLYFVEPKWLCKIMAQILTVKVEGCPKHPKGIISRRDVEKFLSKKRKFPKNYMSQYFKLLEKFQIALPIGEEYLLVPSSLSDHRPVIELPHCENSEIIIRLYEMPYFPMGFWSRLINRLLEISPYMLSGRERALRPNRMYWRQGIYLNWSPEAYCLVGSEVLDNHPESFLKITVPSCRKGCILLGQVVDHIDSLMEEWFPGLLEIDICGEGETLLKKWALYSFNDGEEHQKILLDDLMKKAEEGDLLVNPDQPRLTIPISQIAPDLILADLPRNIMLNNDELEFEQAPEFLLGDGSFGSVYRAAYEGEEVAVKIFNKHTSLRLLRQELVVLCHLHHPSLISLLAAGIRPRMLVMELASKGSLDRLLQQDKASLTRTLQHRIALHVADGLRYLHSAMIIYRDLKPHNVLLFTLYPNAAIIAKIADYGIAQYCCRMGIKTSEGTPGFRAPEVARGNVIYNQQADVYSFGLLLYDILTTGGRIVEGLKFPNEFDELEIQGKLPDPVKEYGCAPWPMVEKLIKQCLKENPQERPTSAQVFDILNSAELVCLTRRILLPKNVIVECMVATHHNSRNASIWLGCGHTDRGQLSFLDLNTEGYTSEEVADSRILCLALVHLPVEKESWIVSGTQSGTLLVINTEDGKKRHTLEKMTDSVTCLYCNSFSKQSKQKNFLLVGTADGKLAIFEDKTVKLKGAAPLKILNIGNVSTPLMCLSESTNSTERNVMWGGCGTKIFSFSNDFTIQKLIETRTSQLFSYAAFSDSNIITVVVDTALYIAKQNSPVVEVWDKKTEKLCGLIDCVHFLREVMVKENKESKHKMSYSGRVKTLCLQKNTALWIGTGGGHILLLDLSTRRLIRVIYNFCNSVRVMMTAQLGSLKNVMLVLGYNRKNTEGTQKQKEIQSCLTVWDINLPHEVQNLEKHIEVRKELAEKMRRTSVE
T2 sequence (Q5S007 970-2527 G2019S): as the sequence (Q5S007 970-2527) above, with G1050S counted along it

Tested on in the first series: not given
Test: not given
The settings on record: from COC(=O)c1cc(O)cc(-c2cnn3ccc(N(CCN(CCO)C(=O)OC(C)(C)C)C(=O)OC(C)(C)C)nc23)c1; ether bond; DIAD/PPh3; toluene; 8.7 mM; 90.0 °C; 3.5 h.
`COC(=O)c1cc2cc(c1)-c1cnn3ccc(nc13)N(C(=O)OC(C)(C)C)CCN(C(=O)OC(C)(C)C)CCO2` had a ring closure, yield of all isomers of 89%.

Still in this series, the particulars now being: from NCCOc1cc(F)cc(-c2cnn3ccc(NCCC(=O)O)nc23)c1; amide bond; HBTU/DIPEA; DMF; 28.6 mM; 25.0 °C; 1.0 h.
Consider `O=C1CCNc2ccn3ncc(c3n2)-c2cc(F)cc(c2)OCCN1`, for which the ring closure, yield of all isomers is 18%.

For the next series, the target named is T1, truncated LRRK2 (Homo sapiens, UniProt Q5S007).
T1 construct: a truncated LRRK2 enzyme (GST tagged LRRK2 of amino acids 970-2527); GST; purchased Invitrogen Corporation
T1 sequence (Q5S007 970-2527): as the sequence (Q5S007 970-2527) above
The series can be described thus: radiometric protein kinase assay (33PanQinase Activity Assay, Protocol 2), truncated LRRK2. Type of series: biochemical.
Details: not given
The protocol:
(§1) The inhibition of LRRK2 and LRRK1 kinase was assessed using LRRK2 and LRRK1 recombinant protein in an in vitro peptide-based kinase assay.
A radiometric protein kinase assay (^33PanQinase® Activity Assay) is used for measuring the kinase activity. All assays are performed in 96-well FlashPlates™ from Perkin Elmer in a 50 μl reaction volume. The reaction cocktail is pipetted in 4 steps in the following order: • 10 μl of non-radioactive ATP solution (in H2O) • 25 μl of assay buffer/[γ-^33P]-ATP mixture • 5 μl of test sample in 10% DMSO • 10 μl of enzyme/substrate mixture
The kinase is obtained from Invitrogen Corporation.
The reaction cocktails were incubated at 30° C. for 60 minutes. The reaction was stopped with 50 μl of 2% (v/v) H3PO4, plates were aspirated and washed two times with 200 μl 0.9% (w/v) NaCl. Incorporation of ^33Pi (counting of “cpm”) was determined with a microplate scintillation counter.
On to `O=C(CF)N1CCNc2ccn3ncc(c3n2)-c2cccc(c2)OCC1` [Example 50], for which the IC50 was < 0.1 µM.

Still in this series, the particulars now being: Protocol 2; ATP 0.3 μM, substrate GSK3(14-27); read-out: IC50 for truncated LRRK2.
`CC(C)C(=O)N1CCNCc2cccc(c2)-c2cnn3ccc(nc23)NCC1` [Compound 53]: the half-inhibitory concentration (IC50) was > 1 µM. In the case of `COCCC(=O)N1CCNCc2cccc(c2)-c2cnn3ccc(nc23)NCC1` [Compound 54], the IC50 lay within 0.1 to 1 µM. On the same count and under the same terms, the same measure for `CCCC(=O)N1CCNCc2cccc(c2)-c2cnn3ccc(nc23)NCC1` [Compound 55]: > 1 µM; for `CN(C)CCC(=O)N1CCNCc2cccc(c2)-c2cnn3ccc(nc23)NCC1` [Compound 56]: > 1 µM.

As for `O=C1CNc2ccn3ncc(c3n2)-c2cccc(c2)OCCCN1` [Compound 57], the 50% inhibitory concentration (IC50) is > 1 µM. Same read-out and setting: to `CN(C)CCN1CCN(C)c2ccn3ncc(c3n2)-c2cccc(c2)OCC1=O` [Compound 58] belongs > 1 µM. Regarding `O=C1CCNCc2cccc(c2)-c2cnn3ccc(nc23)NCCN1` [Compound 59], the 50% inhibitory concentration (IC50) was > 1 µM. Consider `CN1CCC(=O)NCCNc2ccn3ncc(c3n2)-c2cccc(c2)C1` [Compound 60], for which the 50% inhibitory concentration (IC50) is < 0.1 µM. As to `CN1CC(=O)NCCNc2ccn3ncc(c3n2)-c2cccc1c2` [Compound 61], the concentration for half-maximal inhibition (IC50) was > 1 µM. The same measure, in the same setting: to `C[C@H]1NCc2cccc(c2)-c2cnn3ccc(nc23)NCCNC1=O` [Compound 62] belongs > 1 µM. On the same count and under the same terms, to `O=C(C1CC1)N1CCOc2cccc(c2)-c2cnn3ccc(nc23)N(CCO)CC1` [Compound 63] belongs 0.1 to 1 µM. `C[C@@H]1NCc2cccc(c2)-c2cnn3ccc(nc23)NCCNC1=O` [Compound 64]: the IC50 was > 1 µM.

For the compound `CN1CCCOc2cccc(c2)-c2cnn3ccc(nc23)NCCCC1=O` [Compound 65], the concentration for half-maximal inhibition (IC50) was > 1 µM. In the case of `COc1ccc2cc1OCCN(C(=O)C1CC1)CCNc1ccn3ncc-2c3n1` [Compound 66], the half-maximal inhibitory concentration (IC50) was 0.1 to 1 µM. Regarding `O=C1CN(C(=O)C2CC2)CCNc2ccn3ncc(c3n2)-c2cccc(c2)N1` [Compound 67], the half-inhibitory concentration (IC50) is > 1 µM. Take `O=C1CCC(=O)Nc2cccc(c2)-c2cnn3ccc(nc23)OCCCN1` [Compound 68]: the IC50 was > 1 µM.

As to `NC(=O)c1cc2cc(c1)-c1cnn3ccc(nc13)NCCN(C(=O)C1CC1)CCO2` [Compound 69], the IC50 is > 1 µM. For `C=CC(=O)N1CCNc2ccn3ncc(c3n2)-c2cccc(c2)OCC1` [Compound 70], the IC50 was < 0.1 µM. For the compound `O=C(CCF)N1CCNc2ccn3ncc(c3n2)-c2cccc(c2)OCC1` [Example 10], the half-maximal inhibitory concentration (IC50) is < 0.1 µM. On the same count and under the same terms, to `CN(C)C(=O)N1CCNc2ccn3ncc(c3n2)-c2cccc(c2)OCC1` [Example 11] belongs < 0.1 µM; to `CCOC(=O)N1CCCNc2ccn3ncc(c3n2)-c2cccc(c2)OCC1` [Example 12], 0.1 to 1 µM. The same measure, in the same setting: to `NC(=O)CN1CCNc2ccn3ncc(c3n2)-c2cccc(c2)OCC1` [Example 13] belongs < 0.1 µM; to `CS(=O)(=O)N1CCNc2ccn3ncc(c3n2)-c2cccc(c2)OCC1` [Example 14], 0.1 to 1 µM. Consider `CCC(=O)N1CCNc2cccc(c2)-c2cnn3ccc(nc23)NCC1` [Example 17], for which the IC50 was < 0.1 µM.

For `COCCC(=O)N1CCCN(C)c2cccc(c2)-c2cnn3ccc(nc23)NCC1` [Example 19], the half-inhibitory concentration (IC50) fell in the range of 0.1 to 1 µM.

For `O=C(N1CCNc2ccn3ncc(c3n2)-c2cccc(c2)OCC1)N1CCN(CCF)CC1` [Example 29], the IC50 was 0.1 to 1 µM.

Take `COCCC(=O)N1CCNc2ccn3ncc(c3n2)-c2cccc(c2)OCC1` [Example 31]: the half-inhibitory concentration (IC50) fell in the range of 0.1 to 1 µM. Still for that read-out and setting: to `O=C(c1ccc[nH]1)N1CCNc2ccn3ncc(c3n2)-c2cccc(c2)OCC1` [Example 32] belongs < 0.1 µM; to `O=C(c1cocn1)N1CCNc2ccn3ncc(c3n2)-c2cccc(c2)OCC1` [Example 33], < 0.1 µM.

For `O=S(=O)(C1CC1)N1CCNc2ccn3ncc(c3n2)-c2cccc(c2)OCC1` [Example 34], the 50% inhibitory concentration (IC50) lay in the range of 0.1 to 1 µM. Same read-out and setting: to `O=C(C1CC1)N1CCNc2cccc(c2)-c2cnn3ccc(nc23)NCC1` [Example 35] belongs < 0.1 µM. With `O=C(CN1CCOCC1)N1CCNc2ccn3ncc(c3n2)-c2cccc(c2)OCC1` [Example 36], the IC50 was 0.1 to 1 µM.

Take `CNCC(=O)N1CCNc2ccn3ncc(c3n2)-c2cccc(c2)OCC1` [Example 37]: the concentration for half-maximal inhibition (IC50) was < 0.1 µM.

As for `NC(=O)N1CCNc2ccn3ncc(c3n2)-c2cccc(c2)OCC1` [Example 38], the IC50 is < 0.1 µM. As for `CN1CCN(CC(=O)N2CCNc3ccn4ncc(c4n3)-c3cccc(c3)OCC2)CC1` [Example 39], the IC50 is 0.1 to 1 µM.

For the compound `O=C(CCN1CCCC1)N1CCNc2ccn3ncc(c3n2)-c2cccc(c2)OCC1` [Example 40], the concentration for half-maximal inhibition (IC50) was < 0.1 µM. For `CN(C)CCC(=O)N1CCNc2ccn3ncc(c3n2)-c2cccc(c2)OCC1` [Example 41], the IC50 is < 0.1 µM. Same read-out and setting: the same measure for `N#Cc1ccc2cc1OCCN(C(=O)C1CC1)CCNc1ccn3ncc-2c3n1` [Example 42]: < 0.1 µM; for `O=C1CCCNc2ccn3ncc(c3n2)-c2cccc(c2)OCCCN1` [Example 43]: 0.1 to 1 µM. `CC(C)N1CCNc2ccn3ncc(c3n2)-c2cccc(c2)OCC1=O` [Example 44]: the half-inhibitory concentration (IC50) was > 1 µM.

With `O=C1NCCN(C(=O)C2CC2)CCNc2ccn3ncc(c3n2)-c2cccc1c2` [Example 45], the IC50 lay in the range of 0.1 to 1 µM.

For `CN(C)CCN1CCNc2ccn3ncc(c3n2)-c2cccc(c2)OCC1=O` [Example 46], the IC50 is > 1 µM. On the same count and under the same terms, the same measure for `CN1CCNc2ccn3ncc(c3n2)-c2cccc(c2)OCCCS1(=O)=O` [Example 47]: 0.1 to 1 µM. On the same count and under the same terms, to `CN(C)CCN1CCN(C(=O)C2CC2)CCOc2cccc(c2)-c2cnn3ccc1nc23` [Example 48] belongs 0.1 to 1 µM. As for `O=C1CNc2cccc(c2)-c2cnn3ccc(nc23)NCCN1` [Example 49], the IC50 lay in the range of 0.1 to 1 µM. With `O=C(C1CC1)N1CCNCc2cccc(c2)-c2cnn3ccc(nc23)NCC1` [Example 51], the IC50 lay in the range of 0.1 to 1 µM. Still for that read-out and setting: the same measure for `CC(=O)N1CCNCc2cccc(c2)-c2cnn3ccc(nc23)NCC1` [Example 52]: 0.1 to 1 µM.

A further series has as its target T2, truncated LRRK2-G2019S (GST tagged LRRK2-G2019S of amino acids 970-2527) (Homo sapiens, UniProt Q5S007, G2019S).
T2 construct: GST tagged LRRK2-G2019S of amino acids 970-2527; GST
The series can be described thus: LRRKtide 32P-ATP peptide kinase assay (Protocol 1), truncated LRRK2-G2019S. The settings on record: 10 μM ATP, 200 μM lrrktide. Format: biochemical. The method, then: as §1
(§2) LRRK2 protein is prepared as described in Daniëls et al. ((2011) J Neurochem 116, 304-315.). HEK293T cells are transfected with pCHMWS-3xflag-LRRK2 plasmid using polyethyleneimine and lysed after 48-72 hours in lysis buffer (Tris 20 mM pH 7.5, NaCl 150 mM, EDTA 1 mM, Triton 1%, Glycerol 10%, protease inhibitor cocktail). Lysates are cleared by centrifugation at 20,000 g for 10 minutes and incubated with normal mouse IgGs bound to agarose beads to remove proteins aspecifically binding to agarose or mouse IgGs. After removal of the IgG bead slurry, lysates are incubated for 3 to 18 hours with flagM2 bound to agarose beads. Beads are washed 4 times with wash buffer (Tris 25 mM pH 7.5, NaCl 400 mM, Triton 1%) and rinsed in kinase buffer (Tris-HCl 25 mM pH 7.5, 10 mM MgCl2, 2 mM dithiothreitol (DTT), 0.02% triton, 5 mM beta-glycerophosphate, 0.1 mM Na3VO4). Proteins are eluted in 5 volumes of kinase buffer containing 100 μg/ml 3xflag peptide. For assays using purified protein bound to affinity resin, affinity beads are resuspended in an equal volume of kinase buffer unless otherwise indicated. Purity and concentration are assessed by SDS-PAGE (3-8% tris-acetate SDS gel) and Coomassie Brilliant Blue staining or silver staining. Alternatively, a truncated LRRK2 enzyme (GST tagged LRRK2 of amino acids 970-2527) and a truncated LRRK2-G2019S (GST tagged LRRK2-G2019S of amino acids 970-2527) are used.
(§3) For Irrktide phosphorylation, recombinant LRRK2 is incubated with 6 μCi of 32P-ATP (3000 Ci/mmol), 200 μM Irrktide, 10 μM ATP and compound or solvent per 40 μl reaction for 30 minutes at 30° C. Compounds are tested at concentrations ranging from […]; the final amount of DMSO in the kinase reaction is 1%. Reactions are stopped and spotted to P81 phosphocellulose paper and washed 4×10 minutes in 75 mM phosphoric acid. Lrrktide phosphorylation levels are measured via autoradiography. Kinase assays are performed for each condition in triplicate.
(§4) LRRKtide phosphorylation levels are plotted vs. the log of the compound concentration and inhibition curves are fitted from which IC50 values are derived.
On to `O=C(C1CC1)N1CCNc2ccn3ncc(c3n2)-c2cccc(c2)OCC1` [Example 1], for which the concentration for half-maximal inhibition (IC50) is < 0.1 µM.

Regarding `O=C(CCO)N1CCNc2ccn3ncc(c3n2)-c2cccc(c2)OCC1` [Example 4], the IC50 was < 0.1 µM.

Tested on in another series: not given
Test: not given
Details: not given
On to `O=C1CCC(=O)Nc2cccc(c2)-c2cnn3ccc(nc23)OCCCN1` [Compound 68], for which the melting point is 295.1 °C. Still for that read-out and setting: the same measure for `NC(=O)c1cc2cc(c1)-c1cnn3ccc(nc13)NCCN(C(=O)C1CC1)CCO2` [Compound 69]: > 300 °C. The same measure, in the same setting: the same measure for `C=CC(=O)N1CCNc2ccn3ncc(c3n2)-c2cccc(c2)OCC1` [Compound 70]: > 300 °C; for `CCC(=O)N1CCNc2ccn3ncc(c3n2)-c2cccc(c2)N(C)CC1` [Compound 71]: > 300 °C; for `O=C(C1CC1)N1CCNc2ccn3ncc(c3n2)-c2cccc(c2)OCC1` [Example 1]: > 300 °C. The same measure, in the same setting: the same measure for `O=C(CCO)N1CCNc2ccn3ncc(c3n2)-c2cccc(c2)OCC1` [Example 4]: > 300 °C; for `O=S1(=O)CCCOc2cccc(c2)-c2cnn3ccc(nc23)NCCN1` [Example 8]: 269 °C.

The next series addresses T3, truncated LRRK2 (GST tagged LRRK2 of amino acids 970-2527) (Homo sapiens, UniProt Q5S007).
T3 construct: GST tagged LRRK2 of amino acids 970-2527; GST
In words: LRRKtide 32P-ATP peptide kinase assay (Protocol 1), truncated LRRK2. The settings on record: 10 μM ATP, 200 μM lrrktide. Type of series: biochemical. The method, then: as §1, §2, §3, §4
Consider `O=C(C1CC1)N1CCNc2ccn3ncc(c3n2)-c2cccc(c2)OCC1` [Example 1], for which the IC50 is < 0.1 µM. On to `O=C(CCO)N1CCNc2ccn3ncc(c3n2)-c2cccc(c2)OCC1` [Example 4], for which the IC50 is < 0.1 µM.

For orientation: IC50 means the concentration needed to halve the response being measured. One may read the melting point as the temperature, or range, at which the solid turns liquid.
